Measured values as given in patent US20250332178A1, “METHODS OF TREATING MYCOBACTERIAL INFECTIONS USING TETRACYCLINE COMPOUNDS” (priority 2018, published 2025).
In brackets after ≈: the same amount, converted by molar mass. Like-named read-outs stand apart in the source and are kept apart here.

Experiments:
M. intracellulare = assay: MIC (CLSI broth dilution), slow-growing NTM isolates; assay type: cell-based; settings: Mycobacterium intracellulare, read-out: MIC
M. avium = assay: as above; assay type: cell-based; settings: Mycobacterium avium, read-out: MIC
M. immunogenum group = assay: MIC (CLSI broth dilution), RGM isolates; assay type: cell-based; settings: M. immunogenum, read-out: MIC
M. mucogenium group = assay: MIC (CLSI broth dilution), RGM isolates; assay type: cell-based; settings: read-out: MIC
M. chimaera = assay: MIC (CLSI broth dilution), slow-growing NTM isolates; assay type: cell-based; settings: read-out: MIC
M. fortuitum group = assay: MIC (CLSI broth dilution), RGM isolates; assay type: cell-based; settings: Mycolicibacterium fortuitum, read-out: MIC
M. abscessus complex = assay: MIC (CLSI broth dilution), RGM isolates; assay type: cell-based; settings: Mycobacteroides abscessus, read-out: MIC
[1] = test system: slow-growing NTM isolates; assay: MIC (CLSI broth dilution), all slow-growing NTM isolates; assay type: cell-based, nontuberculous mycobacteria; settings: all slow-growing NTM isolates
[2] = test system: rapid-growing mycobacteria (RGM) isolates; assay: MIC (CLSI broth dilution), all RGM isolates; assay type: cell-based, nontuberculous mycobacteria; settings: all 50 RGM isolates
M. simiae = assay: MIC (CLSI broth dilution), slow-growing NTM isolates; assay type: cell-based; settings: read-out: MIC
M. arupense = assay: as above; assay type: cell-based; settings: isolate 11, Other; read-out: MIC
M. smegmatis group = assay: MIC (CLSI broth dilution), RGM isolates; assay type: cell-based; settings: Mycolicibacterium smegmatis, read-out: MIC
[3] = test system: Bacille Calmette Guerin (BCG); assay type: cell-based, Mycobacterium bovis; settings: disk: 30 μg of linezolid
M. chelonae = assay: MIC (CLSI broth dilution), RGM isolates; assay type: cell-based; settings: Mycobacteroides chelonae, read-out: MIC

CC(=O)NC[C@H]1CN(c2ccc(N3CCOCC3)c(F)c2)C(=O)O1 [linezolid]
MIC (M. intracellulare; isolate 6, MAC): 32 µg/mL (≈ 94.9 µM)
MIC (M. intracellulare; isolate 7, MAC): 16 µg/mL (≈ 47.4 µM)
MIC (M. intracellulare; isolate 8, MAC): 32 µg/mL (≈ 94.9 µM)
MIC (M. intracellulare; isolate 9, MAC): 32 µg/mL (≈ 94.9 µM)
MIC (M. intracellulare; isolate 10, MAC): > 32 µg/mL
MIC (M. avium; isolate 1, MAC): 32 µg/mL (≈ 94.9 µM)
MIC (M. avium; isolate 2, MAC): 32 µg/mL (≈ 94.9 µM)
MIC (M. avium; isolate 3, MAC): > 32 µg/mL
MIC (M. immunogenum group; isolate 35, M. immunogenum group): 32 µg/mL (≈ 94.9 µM)
MIC (M. immunogenum group; isolate 36, M. immunogenum group): 8 µg/mL (≈ 23.7 µM)
MIC (M. immunogenum group; isolate 37, M. immunogenum group): 32 µg/mL (≈ 94.9 µM)
MIC (M. immunogenum group; isolate 38, M. immunogenum group): 32 µg/mL (≈ 94.9 µM)
MIC (M. mucogenium group; isolate 39, M. mucogenicum group, M. mucogenicum): ≤ 2 µg/mL
MIC (M. mucogenium group; isolate 40, M. mucogenicum group, M. mucogenicum): ≤ 2 µg/mL
MIC (M. mucogenium group; isolate 41, M. mucogenicum group, M. mucogenicum): ≤ 2 µg/mL
MIC (M. mucogenium group; isolate 42, M. mucogenicum group, M. mucogenicum): ≤ 2 µg/mL
MIC (M. mucogenium group; isolate 43, M. mucogenicum group, M. phocaicum): ≤ 2 µg/mL
MIC (M. mucogenium group; isolate 44, M. mucogenicum group, M. phocaicum): ≤ 2 µg/mL
MIC (M. mucogenium group; isolate 45, M. mucogenicum group, M. phocaicum): ≤ 2 µg/mL
MIC (M. mucogenium group; isolate 46, M. mucogenicum group, M. phocaicum): ≤ 2 µg/mL
MIC (M. mucogenium group; isolate 47, M. mucogenicum group, M. phocaicum): 4 µg/mL (≈ 11.9 µM)
MIC (M. mucogenium group; isolate 48, M. mucogenicum group, M. phocaicum): ≤ 2 µg/mL
MIC (M. chimaera; isolate 4, MAC): 16 µg/mL (≈ 47.4 µM)
MIC (M. chimaera; isolate 5, MAC): 32 µg/mL (≈ 94.9 µM)
MIC (M. fortuitum group; isolate 23, M. fortuitum group, M. fortuitum): ≤ 2 µg/mL
MIC (M. fortuitum group; isolate 24, M. fortuitum group, M. fortuitum): 4 µg/mL (≈ 11.9 µM)
MIC (M. fortuitum group; isolate 25, M. fortuitum group, M. fortuitum): 4 µg/mL (≈ 11.9 µM)
MIC (M. fortuitum group; isolate 26, M. fortuitum group, M. porcinum): ≤ 2 µg/mL
MIC (M. fortuitum group; isolate 27, M. fortuitum group, M. porcinum): 4 µg/mL (≈ 11.9 µM)
MIC (M. fortuitum group; isolate 28, M. fortuitum group, M. porcinum/M. boenickei): ≤ 2 µg/mL
MIC (M. fortuitum group; isolate 29, M. fortuitum group, M. porcinum/M. boenickei): 4 µg/mL (≈ 11.9 µM)
MIC (M. fortuitum group; isolate 30, M. fortuitum group, M. porcinum/M. boenickei): ≤ 2 µg/mL
MIC (M. fortuitum group; isolate 31, M. fortuitum group, M. senegalense): ≤ 2 µg/mL
MIC (M. fortuitum group; isolate 32, M. fortuitum group, M. senegalense): ≤ 2 µg/mL
MIC (M. fortuitum group; isolate 33, M. fortuitum group, M. senegalense): ≤ 2 µg/mL
MIC (M. fortuitum group; isolate 34, M. fortuitum group, M. senegalense): ≤ 2 µg/mL
MIC (M. abscessus complex; isolate 1, M. abscessus complex, erm gene type MAB30): 16 µg/mL (≈ 47.4 µM)
MIC (M. abscessus complex; isolate 2, M. abscessus complex, erm gene type MAB30): 16 µg/mL (≈ 47.4 µM)
MIC (M. abscessus complex; isolate 3, M. abscessus complex, erm gene type MAB30): 32 µg/mL (≈ 94.9 µM)
MIC (M. abscessus complex; isolate 4, M. abscessus complex, erm gene type massiliense): 16 µg/mL (≈ 47.4 µM)
MIC (M. abscessus complex; isolate 5, M. abscessus complex, erm gene type massiliense/subsp. abs hybrid): 4 µg/mL (≈ 11.9 µM)
MIC (M. abscessus complex; isolate 6, M. abscessus complex, erm gene type Type 1 abscessus): 32 µg/mL (≈ 94.9 µM)
MIC (M. abscessus complex; isolate 7, M. abscessus complex, erm gene type Type 1 abscessus): 16 µg/mL (≈ 47.4 µM)
MIC (M. abscessus complex; isolate 8, M. abscessus complex, erm gene type Type 1 abscessus): 16 µg/mL (≈ 47.4 µM)
MIC (M. abscessus complex; isolate 9, M. abscessus complex, erm gene type Type 1 abscessus): 32 µg/mL (≈ 94.9 µM)
MIC (M. abscessus complex; isolate 10, M. abscessus complex, erm gene type Type 1 abscessus): 16 µg/mL (≈ 47.4 µM)
MIC (M. abscessus complex; isolate 11, M. abscessus complex, erm gene type Type 6 abscessus): 8 µg/mL (≈ 23.7 µM)
MIC (M. abscessus complex; isolate 12, M. abscessus complex, erm gene type Type 6 abscessus): 8 µg/mL (≈ 23.7 µM)
MIC (M. abscessus complex; isolate 13, M. abscessus complex, erm gene type Type 6 abscessus): 16 µg/mL (≈ 47.4 µM)
MIC (M. abscessus complex; isolate 14, M. abscessus complex, erm gene type Type 6 abscessus): ≤ 2 µg/mL
MIC (M. abscessus complex; isolate 15, M. abscessus complex, erm gene type Type 7 abscessus): 16 µg/mL (≈ 47.4 µM)
MIC (M. abscessus complex; isolate 16, M. abscessus complex, erm gene type Type 7 abscessus): ≤ 2 µg/mL
MIC (M. abscessus complex; isolate 17, M. abscessus complex, erm gene type Type 8 abscessus): 16 µg/mL (≈ 47.4 µM)
MIC50 ([1]; read-out: MIC50): 32 µg/mL (≈ 94.9 µM)
MIC90 ([1]; read-out: MIC90): > 32 µg/mL
MIC50 ([2]; read-out: MIC50): 4 µg/mL (≈ 11.9 µM)
MIC90 ([2]; read-out: MIC90): 32 µg/mL (≈ 94.9 µM)
MIC (M. simiae; isolate 13, Other): > 32 µg/mL
MIC (M. simiae; isolate 14, Other): 32 µg/mL (≈ 94.9 µM)
MIC (M. simiae; isolate 15, Other): > 32 µg/mL
MIC (M. arupense): 32 µg/mL (≈ 94.9 µM)
MIC (M. smegmatis group; isolate 49, M. smegmatis group, M. goodii): ≤ 2 µg/mL
MIC (M. smegmatis group; isolate 50, M. smegmatis group, M. wolinskyi): 4 µg/mL (≈ 11.9 µM)
Results/Observations (growth) [3]: No growth on plate
MIC (M. chelonae; isolate 18, M. chelonae): 16 µg/mL (≈ 47.4 µM)
MIC (M. chelonae; isolate 19, M. chelonae): 8 µg/mL (≈ 23.7 µM)
MIC (M. chelonae; isolate 20, M. chelonae): 4 µg/mL (≈ 11.9 µM)
MIC (M. chelonae; isolate 21, M. chelonae): 16 µg/mL (≈ 47.4 µM)
MIC (M. chelonae; isolate 22, M. chelonae): 16 µg/mL (≈ 47.4 µM)
